This is an account of results in PubChem BioAssay (NCI).

One may read the TGI as the concentration at which net growth stops. Low values mean more potent growth arrest, high ones less potent growth arrest.

Assay in all cases: DTP human tumour cell line panel, 48 h
Assay [1] has as its system OVCAR-3 ovarian.
In assay [2] the test system is KM20L2 colon.
The test system of assay [3] is MDA-N.
Assay [4] has as its system UACC-62 melanoma.
The test system of assay [5] is SW-620 colon.
Assay [6] relates to SNB-78 CNS.
The test system of assay [7] is DMS 273 small cell lung.
Assay [8] deals with DMS 114 small cell lung.
Assay [9] relates to CAKI-1 renal.
Assay [10] deals with MCF7 breast.
Assay [11] concerns HCT-15 colon.
For assay [12], the system named is ACHN renal.
The subject of assay [13] is M19-MEL melanoma.

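1) Cells in 96-well plates. 2) Compound, 48 h, 5 concentrations. 3) Linear interpolation between surrounding doses. 4) Unreached endpoint = highest concentration. TGI denotes the concentration required for complete inhibition of growth.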

Turning to `CC(NC(=O)/C(C#N)=C/c1ccc2[nH]ccc2c1)c1ccccc1` (stereo not given), the TGI was 58 µM in assay [1]; 33.2 µM in assay [2]; 31.4 µM in assay [3]; 31.8 µM in assay [4]; 33 µM in assay [5]; 90.4 µM in [6]. Besides, the concentration for total growth inhibition (TGI) in assay [7] is 40.7 µM; in assay [8] it was 37.6 µM; in assay [9] it was 66 µM; in assay [10], 56 µM; in [11], 27.6 µM; in assay [12], > 64.9 µM.
Regarding `NC(=O)c1csc(CCCCCCc2nc(C(N)=O)cs2)n1`, the TGI in assay [1] was > 100 µM; in [13], 49.3 µM; in assay [2], > 100 µM; in [4], > 100 µM; in [5], > 60.7 µM; in [6], > 100 µM. In addition, the total growth inhibition concentration (TGI) in assay [7], in assay [8], in assay [9], in assay [11] and in assay [12] was > 100 µM in each case.
Consider `CC(=O)c1c(O)ccc2c1CC(CC=O)O2` (stereo not given), for which the TGI in assay [1], in [13], in [2], in [4], in assay [5] and in assay [6] was > 100 µM in each case. Further, the TGI in assay [8] was 55.1 µM; in assay [9], > 100 µM; in assay [11], > 100 µM; in assay [12], > 100 µM.
With `O=C(O)c1cc(-c2ccccc2O)nc2ccccc12`, the TGI in [1], in assay [13], in assay [2], in [4], in [5] and in assay [6] was > 100 µM throughout. Further, the TGI in [8], in [9], in [11] and in assay [12] was > 100 µM each time.
As for `COC(=O)[C@H]1C=C[C@@H](C)n2c(=O)c3ccccc3c(=O)n21`, the TGI in [1], in assay [13], in assay [2], in assay [5], in [6] and in assay [7] was > 100 µM in each case. In addition, the TGI in assay [8], in assay [9], in [11] and in assay [12] was > 100 µM in each case.
With `C=C1CC2(OC1=O)c1ccccc1C=Cc1ccccc12`, the TGI in assay [1] stood at 8.9 µM; in [13], 11.8 µM; in assay [2], 20.5 µM; in assay [3] it was 4.47 µM; in [4], 9.96 µM; in assay [5], 4.54 µM. Further, the TGI in assay [6] amounted to 9.3 µM; in assay [7] it was 28.2 µM; in assay [8], 21 µM; in [9] it was 6.08 µM; in [10], 6.54 µM; in assay [11] it was 7.77 µM. Besides, the TGI in assay [12] was determined as 9.83 µM.
As to `O=C1C(Cl)C(c2ccc(Cl)cc2)N1n1cnc2ccccc2c1=O` (stereo not given), the TGI in assay [1], in [13], in assay [2], in assay [4], in assay [5] and in assay [6] was > 100 µM throughout. Besides, the total growth inhibition concentration (TGI) in assay [7], in assay [8], in assay [9], in assay [11] and in assay [12] was > 100 µM in each case.
Regarding `CN(C)CCCSc1c2ccccc2nc2cc(NCC(=O)Nc3ccccc3-c3ccccc3NC(=O)CNc3ccc4c(SCCCN(C)C)c5ccccc5nc4c3)ccc12`, the TGI in assay [1], in assay [13], in assay [2], in assay [4], in [5] and in assay [6] was > 100 µM in each case. In addition, the total growth inhibition concentration (TGI) in [7], in [8], in assay [9], in [11] and in [12] was > 100 µM in each case.
Consider `CCOC(=O)c1nc2ccc(Cl)cc2c2c1CCO2`, for which the TGI in assay [1], in assay [13], in [2], in assay [4], in [5] and in assay [6] was > 100 µM throughout. Besides, the TGI in assay [7], in [8], in assay [9], in [11] and in assay [12] was > 100 µM each time.
As to `COc1ccc(C2CCC(Cl)(OC)CC2C=O)cc1` (stereo not given), the TGI in assay [1], in assay [13], in assay [2], in [4], in assay [5] and in assay [7] was > 100 µM in each case. Besides, the TGI in assay [8] was 66.7 µM; in [9] it was > 100 µM; in assay [11] it was > 100 µM; in assay [12], > 100 µM.
Take `NC12CC3CC(C1)CC(Cl)(C3)C2`: the TGI in assay [1], in assay [13], in assay [2], in assay [4], in assay [5] and in [6] was > 100 µM each time. Moreover, the concentration for total growth inhibition (TGI) in [7], in assay [8] and in assay [12] was > 100 µM each time.
Regarding `Cc1nccc2c1cnc1ccnn12`, the TGI in [1], in assay [13], in [2], in assay [5], in assay [6] and in [7] was > 100 µM throughout. Moreover, the TGI in assay [8], in assay [9], in assay [11] and in assay [12] was > 100 µM in each case.
Regarding `CCOC(OCC)c1ccc(/C=C/c2cc(OC)c(OC)c(OC)c2)cc1`, the TGI in [1] was 38 µM; in assay [13], 37 µM; in assay [2], 41.8 µM; in [4], 33.2 µM; in assay [5], 56.3 µM; in assay [6], 87.9 µM. Moreover, the TGI in assay [7] was 41.3 µM; in assay [8], 50.2 µM; in assay [9] it was 74.3 µM; in [11], 30.7 µM; in [12] it was > 100 µM.
For `C/C(=N\NS(=O)(=O)c1ccc(C)cc1)C(CN(C)C)C(c1ccccc1)c1c(O)c2ccccc2oc1=O` (stereo not given), the TGI in assay [1], in assay [13], in assay [2], in [3], in assay [4] and in assay [5] was > 100 µM throughout. For the same compound, the concentration for total growth inhibition (TGI) in assay [6], in assay [9], in [10], in assay [11] and in assay [12] was > 100 µM each time.
`CC(=O)OC1OC2C(NC(=O)OC(C)(C)C)C1CC2(OCc1ccccc1)OCc1ccccc1` (stereo not given): the TGI is 38.5 µM in assay [1]; > 74.1 µM in assay [13]; 39.3 µM in [2]; 42.2 µM in [4]; > 100 µM in [5]; > 100 µM in assay [6]. For the same compound, the TGI was 69.5 µM in [7]; 58 µM in assay [8]; > 100 µM in [9]; > 100 µM in assay [11]; 80 µM in [12].
Take `COc1ccc(/C=C2\N=C(c3ccccc3)N(Nc3nnc(NN4C(=O)/C(=C/c5ccc(OC)cc5)N=C4c4ccccc4)c4ccccc34)C2=O)cc1`: the TGI in assay [13], in assay [2], in assay [4], in [5], in assay [6] and in [7] was > 100 µM throughout. The TGI in assay [8], in assay [11] and in [12] was > 100 µM throughout.
